From US12338268B2, “Compositions and methods for treating protein aggregation-associated diseases” (The Board of Trustees of the Leland Stanford Junior …, priority 2019, dated 2025) come the findings set out here.

In assay [1] the test system is yeast model systems and tissue culture cells. The experiment in a line: Neurotoxicity associated with Huntington's Disease in yeast model systems and tissue culture cells. In kind it is cell-based. The following applies: elevated levels of the subunit.
Assay [2] addresses T1, mutant Huntingtin exon 1 (mHttQ51) (Homo sapiens, UniProt P42858, INS38QQQQQQQQQQQQQQQQQQQQQQQQQQQQQQQ).
T1 construct: mutant Huntingtin exon 1 containing a pathogenic stretch of 51 glutamines (mHttQ51); GST (N, cleaved yes); made in house; host or cells: E. coli Rosetta 2(DE3) pLysS
The assay can be described thus: In vitro filter trap aggregation assay of mutant Huntingtin exon 1. Format: biochemical. The following applies: 5× or 10× molar excess of peptides. How it is done:
Mutant Huntingtin and PolyQ51 aggregation reactions were performed at concentration 3 μM of mHttQ51, 0.044 Units/μl acTEV protease (Invitrogen, Carlsbad, CA, USA), and respective concentrations of Ovalbumin (Sigma) or purified NAC chaperone variants. Aggregation was conducted in TEV reaction buffer (Invitrogen) and incubated at 30° C. AtxQ78 was buffer exchanged into TEV reaction buffer using 7K MWCO Zeba Spin Desalting Columns (Thermo Fisher) to initiate aggregation. AtxQ78 aggregation reactions were performed at 30 μM of Ataxin-3 in reaction buffer (20 mM sodium phosphate pH 7.5, 25 mM NaCl, 6 mM MgCl2, 2 mM DTT, 5% (v/v) glycerol) and incubated at 37° C. Samples at varied time-points were then taken and combined in a 1:1 ratio with a 4% (w/v) SDS, 100 mM DTT solution, boiled for 5 min at 95° C., and stored at −20° C. Samples were then filtered through a 0.22 μm cellulose acetate membrane (Whatman) and washed with 0.1% (w/v) SDS. Membrane was probed using an S-tag antibody (Abcam) for mHttQ51 and PolyQ51, and with a His-tag antibody (Abcam) for AtxQ78.

T1 sequence (P42858 with tags, fused parts or gaps with the stated changes limits assumed): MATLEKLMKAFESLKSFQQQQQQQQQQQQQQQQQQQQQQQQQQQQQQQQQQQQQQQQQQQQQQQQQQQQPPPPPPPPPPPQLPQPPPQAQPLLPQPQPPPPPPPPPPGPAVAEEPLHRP

Turning to “full length CCT1 subunit: single subunit of the TRiC/CCT chaperonin complex”, in assay [1], the “neurotoxicity associated with Huntington's Disease” value was “suppress neurotoxicity”. Consider “C. elegans N-βNAC peptide: synthetic peptide corresponding to the N-terminal region of C. elegans βNAC (SEQ ID NO:1) (MDSKAIAERIKKLQAQQEHVRIGGKGTPRRKKKVIHKTAA)”, for which the mHttQ51 aggregation result in assay [2] is “sufficient to suppress aggregation of mHttQ51”.
